Assay: molar heat capacity at constant pressure
Settings: 101.33 kPa, Crystal, Vacuum adiabatic calorimetry

Nc1ccc([N+](=O)[O-])cn1 [2-amino-5-nitropyridine]
Settings	molar heat capacity at constant pressure [J/K/mol]
80 K	52.33
80.24 K	52.77
84.16 K	54.56
85 K	55.34
87.02 K	56.26
89.97 K	58.05
90 K	58.25
93.01 K	60.06
95 K	61.07
96.12 K	61.79
99.15 K	63.52
100 K	63.81
102.11 K	65.16
105 K	66.48
105.16 K	66.83
108.3 K	68.54
110 K	69.08
111.38 K	69.97
114.4 K	71.41
115 K	71.62
117.37 K	72.83
120 K	74.11
120.43 K	74.39
123.58 K	76.05
125 K	76.55
126.69 K	77.4
129.75 K	78.85
130 K	78.95
132.77 K	80.21
135 K	81.31
135.75 K	81.69
138.82 K	82.97
140 K	83.65
141.99 K	84.37
145 K	85.96
145.12 K	85.83
148.21 K	87.22
150 K	88.25
151.26 K	88.71
154.29 K	90.07
155 K	90.53
157.29 K	91.42
160 K	92.79
160.26 K	92.54
163.32 K	93.8
165 K	95.05
166.47 K	95.36
169.59 K	96.53
170 K	97.31
172.69 K	97.56
175 K	99.56
175.76 K	99.17
178.81 K	100.66
180 K	101.83
181.83 K	101.77
184.86 K	103.74
185 K	104.09
188 K	105.44
190 K	106.38
191.24 K	107.04
194.48 K	108.11
195 K	108.67
197.71 K	110.07
200 K	110.98
200.95 K	111.83
204.28 K	113.75
205 K	113.31
207.71 K	115.82
210 K	115.66
211.1 K	117.36
214.45 K	118.48
215 K	118.02
217.75 K	119.73
220 K	120.42
220.98 K	121.46
224.24 K	123.44
225 K	122.83
227.37 K	125.24
230 K	125.27
230.47 K	126.78
233.53 K	128
235 K	127.73
236.7 K	129.18
239.83 K	130.77
240 K	130.22
242.82 K	132.21
245 K	132.74
245.9 K	133.33
249 K	134.92
250 K	135.28
252.08 K	136.09
255 K	137.85
255.25 K	137.55
258.39 K	138.82
260 K	140.44
261.52 K	140.61
264.62 K	142.67
265 K	143.05
267.71 K	144.57
270 K	145.69
270.79 K	146.14
273.84 K	147.16
275 K	148.34
276.89 K	148.4
279.92 K	149.95
280 K	151.02
282.94 K	151.57
285 K	153.71
286.05 K	152.95
289.25 K	154.4
290 K	156.42
292.39 K	157.06
295 K	159.13
295.48 K	158.97
298.15 K	160.85
298.56 K	161.47
300 K	161.86
301.64 K	163.12
304.71 K	164.66
305 K	164.59
307.77 K	165.74
310 K	167.33
310.83 K	167.2
313.87 K	168.75
315 K	170.06
316.9 K	170.43
319.93 K	172.15
320 K	172.79
323.02 K	174.56
325 K	175.51
326.19 K	175.6
329.34 K	177.96
330 K	178.22
332.48 K	180.37
335 K	180.91
335.62 K	182.54
338.77 K	183.77
340 K	183.58
341.9 K	185.05
345 K	186.22
345.02 K	186.91
348.14 K	188.46
350 K	188.82
351.24 K	190.04
354.33 K	191.86
355 K	191.39
357.42 K	193.4
360 K	193.92
360.58 K	194.97
363.8 K	195.55
365 K	196.39
367.02 K	197.03
370 K	198.81
370.23 K	198.93
373.42 K	200.16
375 K	201.16
376.61 K	202.18
379.79 K	203.08
380 K	203.44
382.96 K	204.62
385 K	205.64
386.12 K	205.85
389.27 K	207.34
390 K	207.76
392.45 K	208.4
395 K	209.78
395.48 K	209.36

Reference: the NIST ThermoML archive (doi:10.1016/j.tca.2007.04.006)
